# Results taken from patent US20240390377A1, “COMPOSITION FOR THE PREVENTION OR TREATMENT OF NEURODEGENERATIVE OR MOTOR NEURON DISEASES COMPRISING HALOFUGINONE AS AN ACTIVE INGREDIENT” (CURAMYS CO., LTD., priority 2022, published 2024).
# Assays:
# C2C12 cells [1] = assay: Western blot analysis of C2C12 myoblasts (TGF-β1 stimulation, halofuginone treatment); format: cell-based, mouse; details: 24 hours of 5 ng/ml TGF-β1 stimulation (FIG. 2b)
# Description: (§1) Specifically, C2C12 cells (CRL-1772) were purchased from the American Type Culture Collection (ATCC) and maintained in DMEM medium (Welgene) containing 10% (v/v) fetal bovine serum (FBS; Gibco) and 1% penicillin-streptomycin (P/S; Gibco) at 37° C. under 5% CO2 conditions. The C2C12 cells were seeded in 6-well plates at a density of 3×10^5 cells per well and allowed to adhere for 24 hours. Subsequently, the medium was replaced with serum-free medium after 24 hours, followed by stimulation with 5 ng/ml rhTGF-β1 (recombinant human TGF-β1; R&D Systems). After stimulation, the cells were treated with various concentrations (0 [control], or 1, 2.5, 5 [low dose], 10 [high dose], 20, 50, 100 ng/ml) of halofuginone (Sigma) in serum-free medium for 24 hours.
# Specifically, the lumbar spinal cord or knee joint of the mouse of Example 6 was separated and immediately frozen at −80° C. Each lumbar spinal cord or knee joint was then homogenized and chemically treated to obtain cells. The chemically treated cells, the C2C12 cells of Example 1 or the fibroblasts of Example 5 were dissolved in a RIPA buffer (Thermo, MA, USA) with a protease inhibitor and a phosphatase inhibitor (Roche, IN, USA) and incubated on ice for 30 minutes. After centrifugation of the lysate at 13,000 rpm at 4° C. for 20 min, insoluble substances were removed. Protein concentrations were measured by BCA analysis (Pierce Biotechnology). Equal volumes of cell lysate were loaded onto SDS-PAGE gels for electrophoresis, and transferred onto nitrocellulose membranes (Amersham Protran 0.2 um NC, Amersham Pharmacia Biotech, Piscataway, NJ, USA). The membranes were then blocked with 5% (w/v) skimmilk in 1×TBST for 1 h at room temperature. After blocking, anti-RB-actin antibody (1:5000; Santa Cruz, cat #sc47778), anti-Smad2 antibody (1:1000; Cell Signaling, cat #5339), anti-p-Smad2 antibody (1:1000; Cell Signaling, cat #3108), anti-TGF-β1 antibody (1:1000; Santa Cruz, cat #sc130348), anti-α-SMA antibody (1:10000; abcam cat #ab7817), anti-MyoD antibody (1:1000; cat #sc377460), anti-collagen|antibody (1:1000; abcam cat #ab21286), anti-cleaved caspase-3 antibody (1:1000; Cell Signaling, cat #9661), anti-bax antibody (1:500; Santa Cruz, cat #sc493), anti-bcl2 antibody (1:1000; Novus Biologics, cat #NB100-56098), anti-ChAT antibody (1:1000; Millipore, cat #AB144) were treated and incubated overnight at 4° C. Subsequently, membranes were washed several times with 1×TBST and incubated with horseradish peroxidase-conjugated secondary antibodies (anti-mouse, rabbit or goat, 1:5000; GE Healthcare) in blocking buffer for 1 h at room temperature (RT). The membranes were then washed, briefly incubated with the SuperSignal West Pico Plus Chemical Substructure (Pierce Biotechnology) according to the manufacturer's procedure, and quantified with an image analyzer (Amersham Pharmacia Biotech, Piscataway, NJ, USA). β-actin was used as an internal control group. The concentration measurement of protein intensity was quantified using Image J (National Institutes of Health).
# (§2) Specifically, after treating C2C12 cells with TGF-β1 for 24 hours as in Example 1, real-time qRT-PCR was performed in the same manner as in Example 11 to confirm TGF-β1, 2 and 3, α-SMA and MyoD mRNA expression (FIG. 2a), and Western blot analysis was performed in the same manner as in Example 12 to confirm autocrine expression of TGF-β1 and MyoD protein and α-SMA (FIG. 2b).
# Specifically, C2C12 cells were treated with halofuginone after TGF-β1 stimulation or no stimulation in the same manner as described in Example 2, and cell viability analysis was performed through CCK-8 analysis (FIGS. 3a and 3b), and Western blot analysis was performed in the same manner as described in Example 12 to confirm autocrine expression of p-Smad2, Smad2, TGF-β1, MyoD, collagen I protein and α-SMA (FIG. 3c). […]
# C2C12 cells [2] = assay: Real-time qRT-PCR analysis of C2C12 myoblasts (TGF-β1 stimulation, halofuginone treatment); format: cell-based, mouse; details: 24 hours of 5 ng/ml TGF-β1 stimulation, vs control group (FIG. 2a)
# Description: as §1
# Specifically, total RNA was isolated from C2C12 cells in Example 1, fibroblasts in Example 5, and the lumbar spinal cord of mice in Example 6 using the FavorPrep™ Tri-RNA Reagent (Favorgen). The lumbar spinal cord was isolated from the mouse in Example 6 and stored frozen at −80° C. until the experiment. The concentration of total RNA was measured at 260 nm absorbance using a spectrophotometer (NanoDrop Spectrophotometer ND-2000, Thermo Scientific). cDNA was synthesized from 1 μg of total RNA using the ReverTra Ace-α™ (Toyobo) according to the manufacturers protocol. Quantitative RT-PCR was performed using the SYBR Green ExcelTaq™ 2× Fast Q-PCR Master Mix (TQ1200, Smobio) on a thermocycler (CFX Connect Real-Time PCR Detection System, BIO-RAD) with the primers listed in Table 3 below. Fluorescence data were analyzed with Bio-Rad CFX Manager 3.1 software, and control versus relative mRNA expression was calculated by the 2AT) method. Experiments were performed four times on all samples. All primers were designed using Primer3 online software, and GAPDH was used as a control group.
# as §2
# Specifically, as in Example 1, C2C12 cells were stimulated with TGF-β1 for 24 hours, and then halofuginone was treated for 24 hours, and real-time qRT-PCR was performed in the same manner as in Example 11 to confirm TGF-β1, α-SMA, MyoD, and collagen I (Col-I) mRNA expression (FIG. 4a). In addition, Western blot analysis was performed in the same manner as in Example 12 to confirm TGF-β1, α-SMA, MyoD, and collagen I protein expression (FIG. 4b). In addition, immunocytochemical analysis was performed in the same manner as in Example 3 to confirm α-SMA and MyoD expression (FIG. 4c).
substance,measurement,setting,value
TGF-β1: recombinant human TGF-β1 (R&D Systems) used to stimulate C2C12 myoblasts,TGF-β1 protein expression,C2C12 cells [1],significantly increased
same,protein expression of MyoD,C2C12 cells [1],significantly decreased
same,α-SMA protein expression,C2C12 cells [1],significantly increased
same,mRNA expression of α-SMA,C2C12 cells [2],significantly increased
same,mRNA level of MyoD,C2C12 cells [2],significantly decreased
same,mRNA level of TGF-β1,C2C12 cells [2],significantly increased
same,mRNA level of TGF-β2,C2C12 cells [2],significantly increased
same,mRNA level of TGF-β3,C2C12 cells [2],significantly increased
